Experimental data: PubChem BioAssay AID504702 (Southern Research Specialized Biocontainment Screening …, 2011)
“And” between values parts separate entries of the source, which are not always exact repeats. Identical values can stand only once. The source made the active and inactive calls. How the calls were made is not given here.

Assays:
[1] = M. tuberculosis growth inhibition with meropenem, dose response, H37Rv, set 2 (AID 504702);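 further: growth read by Alamar Blue after 7 days plus overnight incubation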; details: M. tuberculosis H37Rv with meropenem, growth inhibition
[2] = system: M. tuberculosis H37Rv with meropenem, growth inhibition; assay: as above; details: for IC90: measured here: IC90 growth with meropenem

Compound	growth inhibition ([1]; at 25 µM (top of the series))	IC50 [2]	IC90 [2]	growth inhibition ([1]; at 18.8 µM (top of the series))
Cc1cc2ccccc2n1-c1ccccc1	-0.06% (inactive)	–	–	–
O=C(COc1ccccc1)Nc1nc2ccccc2s1	-1.01% (inactive)	–	–	–
CCC(CC)c1nnc(NC(=O)c2ccc(N3CCCCC3)c([N+](=O)[O-])c2)s1	2.49% (inactive)	–	–	–
Cc1cc(C)c(OCC(=O)Nc2nc3ccc(C)cc3s2)c(C)c1	-0.38% (inactive)	–	–	–
CN(NC(=O)c1c(Cl)cccc1Cl)c1cccc(Cl)n1	–	15.5 µM	> 25 µM	–
COc1ccc2nc(NC(=O)COc3ccccc3C(C)C)sc2c1	-2.44% (inactive)	–	–	–
CC(C)(C)c1ccc(OCC(=O)Nc2nc3ccccc3s2)cc1	-9.97% (inactive)	–	–	–
COc1ccc2nc(NC(=O)COc3ccc(Cl)cc3)sc2c1	0.35% (inactive)	–	–	–
CCCOc1ccc2c(c1)c(C(C)=O)c(C)n2-c1ccccc1	20.4% (inactive)	–	–	–
COc1ccc2nc(NC(=O)COc3ccc(C)cc3)sc2c1	-3.26% (inactive)	–	–	–
Cc1cc2cc(F)ccc2[nH]1	1.92% (inactive)	–	–	–
Cc1ccc(OCC(=O)Nc2nc3ccc(F)cc3s2)cc1	-0.17% (inactive)	–	–	–
CC(C)Cn1c2c(c(O)c(C(=O)Nc3nccs3)c1=O)CCCC2	-0.17% (inactive)	–	–	3.14% (inactive)
CCOc1ccc2nc(NC(=O)COc3ccc(OC)cc3)sc2c1	-8.22% (inactive)	–	–	–
N/C(=N\c1nc2cc(Cl)ccc2o1)NC(=O)c1ccccc1	-0.66% (inactive)	–	–	–
O=C(COc1ccc(Cl)cc1)Nc1nc2ccc(F)cc2s1	-1.17% (inactive)	–	–	–
Cc1cccc(C)c1OCC(=O)Nc1nc2ccc(Cl)cc2s1	-2.26% (inactive)	–	–	–
COc1ccc2oc(C(=O)Nc3nc4ccccc4[nH]3)c(C)c2c1	–	–	> 25 µM	–
CCOC(=O)c1cnc2cc(-c3ccc(C(C)(C)C)cc3)nn2c1N	–	–	> 25 µM	–
CCOC(=O)c1c(C)[nH]c2ccccc12	-5.69% (inactive)	–	–	–
CCOC(=O)COc1nc(-c2ccc(Cl)cc2)cc(-c2ccco2)c1C#N	–	6.8 µM and 4.07 µM	> 25 µM	–
Cc1ccc(OCC(=O)Nc2cccc3c(NC(=O)COc4ccc(C)cc4C)cccc23)c(C)c1	-7.16% (inactive)	–	–	–
O=C(CSc1n[nH]c(=O)n1C1CC1)c1ccc2c(c1)OCCO2	–	4.57 µM	> 25 µM	–
COc1ccc2nc(NC(=O)C(C)Oc3ccccc3)sc2c1 (stereo not drawn)	-2.23% (inactive)	–	–	–
COc1ccc2[nH]c(C)cc2c1	0.56% (inactive)	–	–	–
CC(=O)Nc1ccc2nc(NC(=O)COc3ccccc3)sc2c1	-0.49% (inactive)	–	–	–

Compound	growth inhibition ([1]; at 25 µM (top of the series))	IC50 [2]	IC90 [2]	growth inhibition ([1]; at 18.8 µM (top of the series))
COC(=O)c1sc(-c2ccc(C(C)(C)C)cc2)cc1NC(=O)CCC(=O)O	–	3.46 µM and 7.32 µM	> 25 µM	–
CCCN1CC(O)=C(c2nc3ccccc3s2)C1=N	1.43% (inactive)	–	–	–
CCOc1ccc2nc(NC(=O)c3cnccn3)sc2c1	20.9% (inactive)	–	–	-0.94% (inactive)
N/C(=N\c1nc2ccccc2o1)NC(=O)COc1ccc2ccccc2c1	-2.85% (inactive)	–	–	–
Cc1ccccc1OCC(=O)Nc1noc(-c2ccccc2)n1	-4.18% (inactive)	–	–	–
O=C(O)CCC(=O)Nc1nc2ccccc2s1	-2.73% (inactive)	–	–	–
CC(=O)Nc1ccc2nc(NC(=O)Cc3ccccc3)sc2c1	-7.72% (inactive)	–	–	–
Cc1ccc(OC(C)C(=O)Nc2ncccn2)c(C)c1 (stereo not drawn)	3.48% (inactive)	–	–	–
CCOc1ccc2nc(NC(=O)Cc3ccc(OC)cc3)sc2c1	-9.77% (inactive)	–	–	–
COc1ccc2nc(NC(=O)COc3c(C)cc(C)cc3C)sc2c1	-3.9% (inactive)	–	–	–
CCOc1ccc2c(c1)c(C(C)=O)c(C)n2Cc1ccco1	-2.87% (inactive)	–	–	–
Cc1ccccc1OCC(=O)Nc1nnn(C)n1	0.35% (inactive)	–	–	–
N/C(=N\c1nc2ccccc2o1)NC(=O)c1ccccc1Br	–	3.04 µM	> 25 µM	–
CC(=O)c1c(C)n(-c2ccccc2)c2ccc(OC(C)C)cc12	8.61% (inactive)	–	–	–
COC(=O)c1c(C)[nH]c2ccccc12	-4.94% (inactive)	–	–	–
Cc1cccc(C)c1OCC(=O)Nc1nc2ccccc2s1	-9.19% (inactive)	–	–	–
O=C(COc1ccc2c3c(c(=O)oc2c1)CCC3)Nc1nc2ccccc2[nH]1	-4.95% (inactive)	–	–	–
CCOc1ccc2nc(NC(=O)C3(c4ccccc4)CCCC3)sc2c1	–	1.2 µM	4.16 µM	–
Cc1ccc(C(C)C)c(OCC(=O)Nc2nc3ccccc3s2)c1	-4.96% (inactive)	–	–	–
O=C(Nc1ccccc1)Nc1csc2ccccc12	–	0.49 µM and 0.2 µM	> 25 µM	–
COc1ccc2nc(NC(=O)c3oc4ccccc4c3C)sc2c1	-4.34% (inactive)	–	–	–
CC(=O)c1c(C)n(-c2ccccc2)c2ccc(OS(=O)(=O)C(F)(F)F)cc12	–	–	> 25 µM	–
Cc1cc2ccccc2[nH]1	0.33% (inactive)	–	–	–
CCOc1ccc(NC(=O)COc2ccc(C)cc2C)cc1	-3.23% (inactive)	–	–	–
CCOc1ccc2c(c1)c(C(C)=O)c(C)n2-c1ccccc1Cl	–	13.6 µM	> 25 µM	–
COc1cccc(NC(=O)C2CC2)c1	–	0.58 µM and 3.28 µM	> 25 µM	–

Compound	growth inhibition ([1]; at 25 µM (top of the series))	IC50 [2]	IC90 [2]	growth inhibition ([1]; at 18.8 µM (top of the series))
COc1ccc2c(c1)cc(C)n2-c1ccccc1	–	6.88 µM	> 25 µM	–
Cc1ccc(OCC(=O)Nc2nnn(C)n2)c(C)c1	-3.74% (inactive)	–	–	–
CCOc1ccc2nc(NC(=O)COc3ccc(Cl)c(C)c3)sc2c1	-5.37% (inactive)	–	–	–
Cc1cc2cc(O)ccc2[nH]1	1.86% (inactive)	–	–	–
Cc1ccc(OCC(=O)Nc2nc3c(Cl)cccc3s2)cc1	-2.68% (inactive)	–	–	–
CCOc1ccc2c(c1)c(C(C)=O)c(C)n2-c1ccccc1	–	0.66 µM and 0.52 µM	> 18.8 µM and 2.79 µM	–
CCOc1ccc2c(c1)c(CC)c(C)n2-c1ccccc1	–	4.42 µM	> 25 µM	–
O=C(COC(=O)C1=COCCO1)Nc1ccc2c(c1)OCO2	–	9.76 µM	> 25 µM	–
O=C(Cc1csc(-c2ccccc2F)n1)Nc1nc2ccccc2[nH]1	1.69% (inactive)	–	–	–
c1ccc(OCc2nnc(-c3ccccc3)o2)cc1	–	15 µM and 5.67 µM	> 25 µM	–
O=C(Nc1nc2ccccc2[nH]1)c1ccc(Cl)c(Cl)c1	–	0.81 µM	> 25 µM	–
N/C(=N\c1nc2ccccc2o1)NC(=O)c1ccc(F)cc1	–	9.64 µM	> 25 µM	–
CC(=O)c1c(C)n(-c2ccc(C)cc2)c2ccc(O)cc12	-1.38% (inactive)	–	–	–
CCOc1ccc2c(ccn2-c2ccccc2)c1	-1.15% (inactive)	–	–	–
Cc1ccc(OCC(=O)Nc2ccc(Cl)cc2)c(C)c1	-3.91% (inactive)	–	–	–
CCOc1ccc2c(c1)cc(C)n2-c1ccccc1	–	11.5 µM	> 25 µM	–
Cc1ccccc1OCC(=O)Nc1ccccc1N1CCCCC1	–	6.13 µM and 8.97 µM	> 25 µM	–
CC(C)(Oc1ccc(Cl)cc1)C(=O)Nc1nc2ccccc2s1	1.22% (inactive)	–	–	–
CCOc1ccc2c(c1)c(C(C)=O)c(C)n2-c1ccccc1C	–	3.43 µM	12.1 µM	–
N/C(=N\c1nc2ccccc2o1)NC(=O)c1ccccc1F	-5.8% (inactive)	–	–	–
O=C(COc1ccc2ccccc2c1)Nc1nc2ccccc2[nH]1	–	8.87 µM	> 25 µM	–
Cc1onc(-c2c(Cl)cccc2Cl)c1/C(N)=N/OC(=O)C1CC1	–	1.47 µM	> 25 µM	–
CCOc1ccc2[nH]ccc2c1	2.77% (inactive)	–	–	–
CCOc1ccc2c(c1)c(C(C)=O)c(C)n2-c1cccc(Cl)c1	–	10.5 µM	> 25 µM	–
Cc1ccccc1OCC(=O)Nc1ncn[nH]1	0.97% (inactive)	–	–	–
Oc1ccc2[nH]ccc2c1	3.81% (inactive)	–	–	–

Compound	growth inhibition ([1]; at 25 µM (top of the series))	IC50 [2]	IC90 [2]	growth inhibition ([1]; at 18.8 µM (top of the series))
CC(=O)c1c(C)n(-c2ccccc2C)c2ccc(O)cc12	-1.1% (inactive)	–	–	–
Cc1ccc2sc(NC(=O)COc3ccccc3)nc2c1C	14.4% (inactive)	–	–	–
O=C(COC(=O)C1CC1)c1c[nH]c2ccccc12	–	0.25 µM and 0.64 µM	> 25 µM	–
CCOc1ccc2nc(NC(=O)COc3ccccc3)sc2c1	-8.57% (inactive)	–	–	–
O=C(OC(C(=O)Nc1ccc(Cl)cc1C(F)(F)F)c1ccccc1)C1=COCCO1 (stereo not drawn)	–	3.17 µM	> 25 µM	–
CCOc1ccc2nc(NC(=O)COc3ccc(F)cc3)sc2c1	-3.93% (inactive)	–	–	–
Cc1ccccc1C(=O)Nc1nc2ccccc2[nH]1	–	8.75 µM	> 25 µM	–
COc1cccc(NC(=S)Nc2cc(C)cc(C)n2)c1	–	7.2 µM	> 25 µM	–
CC(=O)c1c(C)n(-c2ccccc2)c2ccc(O)cc12	–	20.1 µM	> 25 µM	–
O=C(CCS(=O)(=O)c1ccc(F)cc1)Nc1nnc(-c2cccs2)o1	–	22.4 µM	> 25 µM	–
CC(=O)c1c(C)n(-c2ccccc2)c2ccccc12	–	11.6 µM	> 25 µM	–
COC(=O)c1c(C)n(-c2ccccc2)c2ccc(O)cc12	–	8.43 µM	> 18.8 µM	–
Cc1ccc(OCC(=O)Nc2cccc3ccccc23)c(C)c1	–	20.5 µM	> 25 µM	–
COc1ccc(C(=O)Nc2ccc3nc(N4CCCCC4)cc(C)c3c2)c(OC)c1	–	17.6 µM	> 25 µM	–
Cc1c(OCc2ccc(C(=O)O)cc2)ccc2c(-c3ccccc3)cc(=O)oc12	–	3.3 µM and 3.99 µM	> 25 µM	–
Cc1cccnc1NC(=S)NC(=O)c1cncc(Br)c1	–	2.71 µM	> 25 µM	–
CCc1ccc2nc(/N=C(\N)NC(=O)c3ccccc3)nc(C)c2c1	–	0.82 µM	> 25 µM	–
OCCCc1cn(-c2ccccc2)c2ccccc12	–	14.2 µM	> 25 µM	–
Cc1ccc(OCC(=O)Nc2ccc3c4c(cccc24)CC3)c(C)c1	–	0.91 µM and 6.11 µM	> 25 µM	–
COc1ccc2c(c1)c(C(C)=O)c(C)n2-c1ccccc1	–	0.53 µM and 1.3 µM	> 18.8 µM	–
COc1ccc(Cl)cc1C(=O)Nc1nc2ccccc2[nH]1	–	16.2 µM	> 25 µM	–
c1ccc(Nc2ncnc3c2oc2ccccc23)cc1	–	5.29 µM	> 25 µM	–
CCOc1ccc2[nH]cc(C(=O)OC)c2c1	–	–	> 25 µM	–
